Assay results: ChEMBL document CHEMBL1687734, “Pharmacokinetics of EDP-420 after multiple oral doses in healthy adult volunteers and in a bioequivalence study” (Antimicrob Agents Chemother, 2009)

Assays:
[1] = Tmax in 8 hrs fasted healthy human plasma at 200 mg, po administered as single dose of two-100 mg capsules; assay type: ADME, organism-based
[2] = AUC (0 to last) in 8 hrs fasted healthy human plasma at 200 mg, po administered as single dose of two-100 mg capsules; assay type: ADME, organism-based; design: dose 200 mg, route oral, time 0 - last
[3] = AUC (0 to infinity) in 8 hrs fasted healthy human plasma at 200 mg, po administered as single dose of suspension; assay type: ADME, organism-based; design: dose 200 mg, route oral, time infinity
[4] = AUC (0 to infinity) in 8 hrs fasted healthy human plasma at 200 mg, po administered as single dose of two-100 mg capsules; assay type: ADME, organism-based; design: dose 200 mg, route oral, time infinity
[5] = AUC (0 to infinity) in high-fat fed healthy human plasma at 200 mg, po administered as single dose of two-100 mg capsules; assay type: ADME, organism-based; design: dose 200 mg, route oral, time infinity
[6] = Half life in 8 hrs fasted healthy human plasma at 200 mg, po administered as single dose of suspension; assay type: ADME, organism-based
[7] = Half life in high-fat fed healthy human plasma at 200 mg, po administered as single dose of two-100 mg capsules; assay type: ADME, organism-based
Homo sapiens [8] = experiment: Ratio of Cmax in high-fat fed healthy human plasma at 200 mg, po administered as single dose of two-100 mg capsules to cmax in high-fat fed healthy human plasma assessed as EDP-420 9-keto level at 200 mg, po administered as single dose of two-100 mg capsules; assay type: ADME, organism-based; conditions: in vivo
Homo sapiens [9] = experiment: Ratio of AUC (0 to infinity) in high-fat fed healthy human plasma at 200 mg, po administered as single dose of two-100 mg capsules to AUC (0 to infinity) in high-fat fed healthy human plasma assessed as EDP-420 9-keto level at 200 mg, po administered as single dose of two-100 mg capsules; assay type: ADME, organism-based; conditions: in vivo
[10] = AUC (0 to 24 hrs) in Epithelial lining fluid of healthy human at 400 mg, po administered as single dose; assay type: ADME, organism-based; conditions: read-out: Drug uptake
[11] = Ratio of AUC (0 to 24 hrs) in epithelial lining fluid of healthy human to AUC (0 to 24 hrs) in healthy human plasma at 400 mg, po administered as single dose; assay type: ADME, organism-based
[12] = Ratio of AUC (0 to 24 hrs) in Alveolar macrophage of healthy human to AUC (0 to 24 hrs) in healthy human plasma at 400 mg, po administered as single dose; assay type: ADME, organism-based; conditions: alveolar macrophages / plasma
[13] = Drug concentration in Epithelial lining fluid of healthy human at 400 mg, po administered as single dose after 24 hrs; assay type: ADME, organism-based; conditions: read-out: Drug uptake
[14] = Drug concentration in Alveolar macrophage of healthy human at 400 mg, po administered as single dose after 24 hrs; assay type: ADME, organism-based; conditions: alveolar macrophages, read-out: Drug uptake
[15] = Ratio of drug concentration in Epithelial lining fluid of healthy human at 400 mg, po administered as single dose after 24 hrs to drug concentration in Epithelial lining fluid of healthy human at 500 mg, po administered as single dose after 24 hrs; assay type: ADME, organism-based; conditions: in vivo
[16] = Ratio of drug concentration in Alveolar macrophage of healthy human at 400 mg, po administered as single dose after 24 hrs to drug concentration in Alveolar macrophage of healthy human at 500 mg, po administered as single dose after 24 hrs; assay type: ADME, organism-based; conditions: in vivo
Homo sapiens [17] = experiment: Toxicity in healthy human assessed as occurrence of mortality at 200 mg, po once daily for 3 days; assay type: organism-based; conditions: in vivo, 72 h
Homo sapiens [18] = experiment: Toxicity in healthy human assessed as occurrence of mortality at 400 mg administered once on day 1 followed by 200 mg once daily for 2 days during 3 days of treatment; assay type: organism-based; conditions: in vivo
Homo sapiens [19] = experiment: Toxicity in healthy human in 8 hrs fasted healthy human assessed as incidence of severe adverse events at 200 mg, po administered as single dose of suspension; assay type: organism-based; conditions: in vivo
Homo sapiens [20] = experiment: Toxicity in healthy human in 8 hrs fasted healthy human assessed as changes in liver functions at 200 mg, po administered as single dose of two-100 mg capsules; assay type: organism-based; conditions: in vivo
Homo sapiens [21] = experiment: Toxicity in high-fat fed healthy human assessed as changes in liver functions at 200 mg, po administered as single dose of two-100 mg capsules; assay type: organism-based; conditions: in vivo
Homo sapiens [22] = experiment: Toxicity in healthy human in 8 hrs fasted healthy human assessed as changes in vital signs at 200 mg, po administered as single dose of suspension; assay type: organism-based; conditions: in vivo
Homo sapiens [23] = experiment: Toxicity in healthy human in 8 hrs fasted healthy human assessed as changes in vital signs at 200 mg, po administered as single dose of two-100 mg capsules; assay type: organism-based; conditions: in vivo
Homo sapiens [24] = experiment: Toxicity in high-fat fed healthy human assessed as changes in vital signs at 200 mg, po administered as single dose of two-100 mg capsules; assay type: organism-based; conditions: in vivo
Homo sapiens [25] = experiment: Toxicity in high-fat fed healthy human assessed as changes in physical examinations at 200 mg, po administered as single dose of two-100 mg capsules; assay type: organism-based; conditions: in vivo
[26] = Cmax in healthy human plasma at 200 mg, po once daily for 3 days measured after 1 day; assay type: ADME, organism-based; design: dose 200 mg, route oral
[27] = Cmax in healthy human plasma at 200 mg, po once daily for 3 days measured after 3 days; assay type: ADME, organism-based; design: dose 200 mg, route oral
[28] = AUC (0 to infinity) in healthy human plasma at 200 mg, po once daily for 3 days measured after 3 days; assay type: ADME, organism-based; design: dose 200 mg, route oral, time infinity
Homo sapiens [29] = experiment: Ratio of AUC (0 to 24 hrs) in healthy human plasma at 200 mg, po once daily for 3 days measured on day 3 to AUC (0 to 24 hrs) in healthy human plasma at 200 mg, po once daily for 3 days measured on day 1; assay type: ADME, organism-based; conditions: in vivo
[30] = Cmax in healthy human plasma at loading dose of 400 mg/day, po once daily for 3 days measured after 1 day; assay type: ADME, organism-based; design: dose 400 mg/day, route oral
[31] = Tmax in healthy human plasma at loading dose of 400 mg/day, po once daily for 3 days measured after 1 day; assay type: ADME, organism-based
[32] = Cmax in healthy human plasma at 400 mg administered once on day 1 followed by 200 mg once daily for 2 days during 3 days of treatment measured after 3 days; assay type: ADME, organism-based; design: dose 400 mg
[33] = Tmax in healthy human plasma at 400 mg administered once on day 1 followed by 200 mg once daily for 2 days during 3 days of treatment measured after 3 days; assay type: ADME, organism-based
[34] = AUC (0 to last) in healthy human plasma at 400 mg administered once on day 1 followed by 200 mg once daily for 2 days during 3 days of treatment measured after 3 days; assay type: ADME, organism-based; design: dose 400 mg, time 0 - last
[35] = AUC (0 to infinity) in healthy human plasma at 400 mg administered once on day 1 followed by 200 mg once daily for 2 days during 3 days of treatment measured after 3 days; assay type: ADME, organism-based; design: dose 400 mg, time infinity
Homo sapiens [36] = experiment: Ratio of AUC (0 to 24 hrs) in healthy human plasma at loading dose of 400 mg/day, po once daily measured on 1 day to AUC (0 to 24 hrs) in healthy human plasma at 400 mg administered once on day 1 followed by 200 mg once daily for 2 days during 3 days of treatment measured on day 3; assay type: ADME, organism-based; conditions: in vivo
[37] = Half life in healthy human plasma at 400 mg administered once on day 1 followed by 200 mg once daily for 2 days during 3 days of treatment measured after 3 days; assay type: ADME, organism-based
[38] = Cmax in high-fat fed healthy human plasma at 200 mg, po administered as single dose of two-100 mg capsules; assay type: ADME, organism-based; design: dose 200 mg, route oral

Compound: CC[C@H]1OC(=O)[C@H](C)C(=O)[C@H](C)[C@@H](O[C@@H]2O[C@H](C)C[C@H](N(C)C)[C@H]2O)[C@@]2(C)C[C@@H](C)/C(=N\C(C)=O)[C@H](C)[C@@H](OC/C(=N\OCc3ccc(-n4cccn4)nc3)CO2)[C@]1(C)O [MODITHROMYCIN]
- Tmax [1]: 3.5 h
- AUC(0-t) [2]: 8940 ng·h/mL
- AUC(0-inf) [3]: 8350 ng·h/mL
- AUC(0-inf) [4]: 9030 ng·h/mL
- AUC(0-inf) [5]: 9040 ng·h/mL
- half-life [6]: 16.8 h
- half-life [7]: 16.9 h
- Ratio (Homo sapiens [8]): 0.092
- Ratio (Homo sapiens [9]): 0.147
- AUC [10]: 212000 ng·h/mL
- Kp [11]: 20.3
- Kp [12]: 245
- concentration at 24 h [13]: 6500 ng/mL
- concentration at 24 h [14]: 68000 ng/mL
- Ratio [15]: > 72
- Ratio [16]: > 2
- Activity (Homo sapiens [17]): Non-toxic
- Activity (Homo sapiens [18]): Non-toxic
- Activity (Homo sapiens [19]): Non-toxic
- Activity (Homo sapiens [20]): Non-toxic
- Activity (Homo sapiens [21]): Non-toxic
- Activity (Homo sapiens [22]): Non-toxic
- Activity (Homo sapiens [23]): Non-toxic
- Activity (Homo sapiens [24]): Non-toxic
- Activity (Homo sapiens [25]): Non-toxic
- Cmax [26]: 432 ng/mL
- Cmax [27]: 559 ng/mL
- AUC(0-inf) [28]: 16400 ng·h/mL
- Ratio AUC (Homo sapiens [29]): 1.41
- Cmax [30]: 548 ng/mL
- Tmax [31]: 4 h
- Cmax [32]: 514 ng/mL
- Tmax [33]: 3.5 h
- AUC(0-t) [34]: 15000 ng·h/mL
- AUC(0-inf) [35]: 15100 ng·h/mL
- Ratio AUC (Homo sapiens [36]): 0.99
- half-life [37]: 17.7 h
- Cmax [38]: 394 ng/mL
